The source made the active and inactive calls. The calls are words filed in the database; no cut-off is given here.
What was measured:
HT-1080 [1] = assay: Antiproliferative activity against human HT1080 cells at 30 uM after 72 hrs by MTT assay; type: functional; settings: HT-1080, 72 h
HT-1080 [2] = assay: Antiproliferative activity against human HT1080 cells at 1 uM after 24 hrs by MTT assay; type: functional; settings: HT-1080, 24 h
HT-1080 [3] = assay: Antiproliferative activity against human HT1080 cells at 1 uM after 48 hrs by calcein-AM assay; type: functional; settings: HT-1080, 48 h
HT-1080 [4] = assay: Antiproliferative activity against human HT1080 cells at 3 uM after 72 hrs by MTT assay; type: functional; settings: HT-1080, 72 h
HT-1080 [5] = assay: Antiproliferative activity against human HT1080 cells at 3 uM after 24 hrs by MTT assay; type: functional; settings: HT-1080, 24 h
HT-1080 [6] = assay: Antiproliferative activity against human HT1080 cells at 10 uM after 48 hrs by MTT assay; type: functional; settings: HT-1080, 48 h
HT-1080 [7] = assay: Antiproliferative activity against human HT1080 cells at 3 uM after 48 hrs by calcein-AM assay; type: functional; settings: HT-1080, 48 h
HL-60 [8] = assay: Induction of human HL60 cells differentiation assessed as number of cells at 20 uM after 72 hrs by NBT reduction test; type: functional
HT-1080 [9] = assay: Antiproliferative activity against human HT1080 cells at 30 uM after 72 hrs by calcein-AM assay; type: functional; settings: HT-1080, 72 h
HT-1080 [10] = assay: Inhibition of invasion of human HT1080 cells at 10 uM after 24 hrs; type: functional; settings: HT-1080, 24 h
HT-1080 [11] = assay: Antiproliferative activity against human HT1080 cells at 3 uM after 48 hrs by MTT assay; type: functional; settings: HT-1080, 48 h
HT-1080 [12] = assay: Antiproliferative activity against human HT1080 cells at 30 uM after 24 hrs by calcein-AM assay; type: functional; settings: HT-1080, 24 h
HT-1080 [13] = assay: Inhibition of invasion of human HT1080 cells at 30 uM after 24 hrs; type: functional; settings: HT-1080, 24 h
HT-1080 [14] = assay: Inhibition of proMMP2 production in human HT1080 cells by gelatin zymography analysis; type: functional, cell-based
HT-1080 [15] = assay: Antiproliferative activity against human HT1080 cells at 1 uM after 72 hrs by MTT assay; type: functional; settings: HT-1080, 72 h
HT-1080 [16] = assay: Antiproliferative activity against human HT1080 cells at 3 uM after 24 hrs by calcein-AM assay; type: functional; settings: HT-1080, 24 h
HT-1080 [17] = assay: Inhibition of invasion of human HT1080 cells at 3 uM after 24 hrs; type: functional; settings: HT-1080, 24 h
HL-60 [18] = assay: […] human HL60 cells assessed NBT positive cells at 30 uM after 72 hrs by NBT reduction test; type: functional
U-937 [19] = assay: Antiproliferative activity against human U937 cells after 72 hrs by WST-8 assay; type: functional, cell-based; settings: U-937, 72 h
HT-1080 [20] = assay: Antiproliferative activity against human HT1080 cells at 3 uM after 72 hrs by calcein-AM assay; type: functional; settings: HT-1080, 72 h
HT-1080 [21] = assay: Antiproliferative activity against human HT1080 cells at 10 uM after 48 hrs by calcein-AM assay; type: functional; settings: HT-1080, 48 h
U-937 [22] = assay: Antiproliferative activity against human U937 cells after 24 hrs by WST-8 assay; type: functional, cell-based; settings: U-937, 24 h
HT-1080 [23] = assay: Antiproliferative activity against human HT1080 cells at 30 uM after 48 hrs by MTT assay; type: functional; settings: HT-1080, 48 h
HT-1080 [24] = assay: Antiproliferative activity against human HT1080 cells at 1 uM after 24 hrs by calcein-AM assay; type: functional; settings: HT-1080, 24 h
HT-1080 [25] = assay: Antiproliferative activity against human HT1080 cells at 10 uM after 72 hrs by MTT assay; type: functional; settings: HT-1080, 72 h
HT-1080 [26] = assay: Antiproliferative activity against human HT1080 cells at 1 uM after 48 hrs by MTT assay; type: functional; settings: HT-1080, 48 h
HL-60 [27] = assay: […] human HL60 cells assessed NBT positive cells at 10 uM after 72 hrs by NBT reduction test; type: functional
U-937 [28] = assay: Antiproliferative activity against human U937 cells after 48 hrs by WST-8 assay; type: functional, cell-based; settings: U-937, 48 h
HT-1080 [29] = assay: Antiproliferative activity against human HT1080 cells at 10 uM after 24 hrs by MTT assay; type: functional; settings: HT-1080, 24 h
HL-60 [30] = assay: Induction of human HL60 cells differentiation assessed as number of cells at 10 uM after 72 hrs by NBT reduction test; type: functional
HT-1080 [31] = assay: Inhibition of proMMP9 production in human HT1080 cells by gelatin zymography analysis; type: functional, cell-based
HT-1080 [32] = assay: Inhibition of invasion of human HT1080 cells at 1 uM after 24 hrs; type: functional; settings: HT-1080, 24 h
HT-1080 [33] = assay: Antiproliferative activity against human HT1080 cells at 1 uM after 72 hrs by calcein-AM assay; type: functional; settings: HT-1080, 72 h
HT-1080 [34] = assay: Antiproliferative activity against human HT1080 cells at 10 uM after 72 hrs by calcein-AM assay; type: functional; settings: HT-1080, 72 h
HT-1080 [35] = assay: Antiproliferative activity against human HT1080 cells at 30 uM after 24 hrs by MTT assay; type: functional; settings: HT-1080, 24 h
HT-1080 [36] = assay: Antiproliferative activity against human HT1080 cells at 30 uM after 48 hrs by calcein-AM assay; type: functional; settings: HT-1080, 48 h
HT-1080 [37] = assay: Antiproliferative activity against human HT1080 cells at 10 uM after 24 hrs by calcein-AM assay; type: functional; settings: HT-1080, 24 h
HL-60 [38] = assay: Induction of human HL60 cells differentiation assessed as number of cells at 0.02 uM after 72 hrs by NBT reduction test; type: functional
HL-60 [39] = assay: […] human HL60 cells assessed NBT positive cells at 0.01 uM after 72 hrs by NBT reduction test; type: functional
HL-60 [40] = assay: Induction of human HL60 cells differentiation assessed as number of cells at 0.01 uM after 72 hrs by NBT reduction test; type: functional
HL-60 [41] = assay: […] human HL60 cells assessed NBT positive cells at 0.02 uM after 72 hrs by NBT reduction test; type: functional

Compound	inhibition at 30 µM (HT-1080 [1]) [%]	inhibition at 3 µM (HT-1080 [4]) [%]	inhibition at 3 µM (HT-1080 [5]) [%]	inhibition at 10 µM (HT-1080 [6]) [%]	inhibition at 3 µM (HT-1080 [7]) [%]	inhibition at 30 µM (HT-1080 [9]) [%]	inhibition at 10 µM (HT-1080 [10]) [%]	inhibition at 3 µM (HT-1080 [11]) [%]	inhibition at 30 µM (HT-1080 [12]) [%]	inhibition at 30 µM (HT-1080 [13]) [%]	inhibition at 3 µM (HT-1080 [16]) [%]	inhibition at 3 µM (HT-1080 [17]) [%]	IC50 (U-937 [19]) [µM]	inhibition at 3 µM (HT-1080 [20]) [%]	inhibition at 10 µM (HT-1080 [21]) [%]	IC50 (U-937 [22]) [µM]	inhibition at 30 µM (HT-1080 [23]) [%]	inhibition at 10 µM (HT-1080 [25]) [%]	IC50 (U-937 [28]) [µM]	inhibition at 10 µM (HT-1080 [29]) [%]	further results
COc1cc2c(cc1OC)[C@]1(O)C(=O)c3ccc4c(c3O[C@@H]1CO2)C=CC(C)(C)O4 [TEPHROSIN]	98.6	98.7	0.8	98.1	63	98.3	49.2	97.9	13.7	67.6	7	29.6	7.3	97.9	67.7	30	98	98.9	23	2	inhibition at 1 µM (HT-1080 [2]): -1.9%; inhibition at 1 µM (HT-1080 [3]): 54%; Activity (HL-60 [8]): 1 10^5/ml; Activity (HT-1080 [14]): Active; inhibition at 1 µM (HT-1080 [15]): 98.7%; Activity (HL-60 [18]): 8.4%; inhibition at 1 µM (HT-1080 [24]): 5%; inhibition at 1 µM (HT-1080 [26]): 96.4%; Activity (HL-60 [27]): 5.9%; Activity (HL-60 [30]): 4.5 10^5/ml; Activity (HT-1080 [31]): Active; inhibition at 1 µM (HT-1080 [32]): -9.3%; inhibition at 1 µM (HT-1080 [33]): 97.8%; inhibition at 10 µM (HT-1080 [34]): 98.2%; inhibition at 30 µM (HT-1080 [35]): 3.8%; inhibition at 30 µM (HT-1080 [36]): 83.2%; inhibition at 10 µM (HT-1080 [37]): 5.9%
C=C1/C(=C\C=C2/CCC[C@]3(C)[C@@H]([C@H](C)CCCC(C)(C)O)CC[C@@H]23)C[C@@H](O)C[C@@H]1O [CALCITRIOL]	–	–	–	–	–	–	–	–	–	–	–	–	–	–	–	–	–	–	–	–	Activity (HL-60 [38]): 6.8 10^5/ml; Activity (HL-60 [39]): 15.6%; Activity (HL-60 [40]): 8 10^5/ml; Activity (HL-60 [41]): 27.9%
COc1cc2c(cc1OC)[C@@H]1C(=O)c3ccc4c(c3O[C@@H]1CO2)C=CC(C)(C)O4 [DEGUELIN]	98.9	98.7	8.6	97.7	44.2	98.5	58	96.5	17	57.9	-0.9	50.2	5.8	98.5	51	42	97.3	98.8	16	10.7	inhibition at 1 µM (HT-1080 [2]): 6.3%; inhibition at 1 µM (HT-1080 [3]): 35.2%; Activity (HL-60 [8]): 0.3 10^5/ml; Activity (HT-1080 [14]): Active; inhibition at 1 µM (HT-1080 [15]): 98.2%; Activity (HL-60 [18]): 22.2%; inhibition at 1 µM (HT-1080 [24]): 10.5%; inhibition at 1 µM (HT-1080 [26]): 78.3%; Activity (HL-60 [27]): 12.5%; Activity (HL-60 [30]): 2.1 10^5/ml; Activity (HT-1080 [31]): Active; inhibition at 1 µM (HT-1080 [32]): 38%; inhibition at 1 µM (HT-1080 [33]): 95.3%; inhibition at 10 µM (HT-1080 [34]): 98.5%; inhibition at 30 µM (HT-1080 [35]): 10.9%; inhibition at 30 µM (HT-1080 [36]): 40.4%; inhibition at 10 µM (HT-1080 [37]): -1.8%
C=C(C)[C@H]1Cc2c(ccc3c2O[C@@H]2COc4cc(OC)c(OC)cc4[C@@H]2C3=O)O1 [ROTENONE]	97.8	98.5	9.9	97.3	44.2	93.4	53.7	97.5	26.8	51.6	17.1	19.6	0.07	95.3	51	13	96.9	98.4	0.2	9.5	inhibition at 1 µM (HT-1080 [2]): 9.4%; inhibition at 1 µM (HT-1080 [3]): 35.2%; Activity (HT-1080 [14]): Active; inhibition at 1 µM (HT-1080 [15]): 98.6%; inhibition at 1 µM (HT-1080 [24]): 16.2%; inhibition at 1 µM (HT-1080 [26]): 95.9%; Activity (HT-1080 [31]): Active; inhibition at 1 µM (HT-1080 [32]): 0.6%; inhibition at 1 µM (HT-1080 [33]): 97.4%; inhibition at 10 µM (HT-1080 [34]): 91.4%; inhibition at 30 µM (HT-1080 [35]): 0.7%; inhibition at 30 µM (HT-1080 [36]): 40.4%; inhibition at 10 µM (HT-1080 [37]): 23%
O=c1c(-c2ccc(O)cc2)coc2cc(O)cc(O)c12 [GENISTEIN]	22.5	-0.9	-6.2	9.3	2	17.2	35.1	3.8	17.3	43.2	2.8	5.5	48	1.5	5.1	> 100	25.3	1.7	72	-1.2	Activity (HL-60 [8]): 5.3 10^5/ml; Activity (HL-60 [18]): 11.2%; Activity (HL-60 [27]): 4.1%; Activity (HL-60 [30]): 8.3 10^5/ml; inhibition at 10 µM (HT-1080 [34]): 6%; inhibition at 30 µM (HT-1080 [35]): 12.5%; inhibition at 30 µM (HT-1080 [36]): 17.6%; inhibition at 10 µM (HT-1080 [37]): 6.1%
